From PubChem BioAssay AID1963974 (Molecular Pharmacology Branch, DTP, NCI, 2024)

System: 648629-189-R-J1-PDC spheroids with HUVEC/MSC, viability
Test: Anticancer human tumor 648629-189-R-J1-PDC patient-derived bladder carcinoma cell line growth inhibition [PI3K]
Conditions: for IC50: curve of first compound; for viability, T/C: stronger effect = lower value
Outline: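 Agents were dosed from a top concentration near clinical Cmax (otherwise 10 microM) in half-log decrements, alone or combined with PI3K inhibitors. The spheroids contain tumor cells plus endothelial (HUVEC) and MSC stroma; viability is measured.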

[1] = second compound 0.00316 µM, first compound 0.000316 µM
[2] = second compound 0.00316 µM, first compound 0.001 µM
[3] = second compound 0.00316 µM, first compound 0.00316 µM
[4] = second compound 0.00316 µM, first compound 0.01 µM
[5] = second compound 0.00316 µM, first compound 0.0316 µM
[6] = second compound 0.00316 µM, first compound 0.1 µM
[7] = second compound 0.01 µM, first compound 0.000316 µM
[8] = second compound 0.01 µM, first compound 0.001 µM
[9] = second compound 0.01 µM, first compound 0.00316 µM
[10] = second compound 0.01 µM, first compound 0.01 µM
[11] = second compound 0.01 µM, first compound 0.0316 µM
[12] = second compound 0.01 µM, first compound 0.1 µM
[13] = second compound 0.0316 µM, first compound 0.000316 µM
[14] = second compound 0.0316 µM, first compound 0.001 µM
[15] = second compound 0.0316 µM, first compound 0.00316 µM
[16] = second compound 0.0316 µM, first compound 0.01 µM
[17] = second compound 0.0316 µM, first compound 0.0316 µM
[18] = second compound 0.0316 µM, first compound 0.1 µM
[19] = second compound 0.1 µM, first compound 0.000316 µM
[20] = second compound 0.1 µM, first compound 0.001 µM
[21] = second compound 0.1 µM, first compound 0.00316 µM
[22] = second compound 0.1 µM, first compound 0.01 µM
[23] = second compound 0.1 µM, first compound 0.0316 µM
[24] = second compound 0.1 µM, first compound 0.1 µM
[25] = second compound 0.316 µM, first compound 0.000316 µM
[26] = second compound 0.316 µM, first compound 0.001 µM
[27] = second compound 0.316 µM, first compound 0.00316 µM
[28] = second compound 0.316 µM, first compound 0.01 µM
[29] = second compound 0.316 µM, first compound 0.0316 µM
[30] = second compound 0.316 µM, first compound 0.1 µM
[31] = second compound 1 µM, first compound 0.000316 µM
[32] = second compound 1 µM, first compound 0.001 µM
[33] = second compound 1 µM, first compound 0.00316 µM
[34] = second compound 1 µM, first compound 0.01 µM
[35] = second compound 1 µM, first compound 0.0316 µM
[36] = second compound 1 µM, first compound 0.1 µM
[37] = second compound 0.00316 µM, first compound 0.316 µM
[38] = second compound 0.00316 µM, first compound 1 µM
[39] = second compound 0.00316 µM, first compound 3.16 µM
[40] = second compound 0.00316 µM, first compound 10 µM
[41] = second compound 0.01 µM, first compound 0.316 µM
[42] = second compound 0.01 µM, first compound 1 µM
[43] = second compound 0.01 µM, first compound 3.16 µM
[44] = second compound 0.01 µM, first compound 10 µM
[45] = second compound 0.0316 µM, first compound 0.316 µM
[46] = second compound 0.0316 µM, first compound 1 µM
[47] = second compound 0.0316 µM, first compound 3.16 µM
[48] = second compound 0.0316 µM, first compound 10 µM
[49] = second compound 0.1 µM, first compound 0.316 µM
[50] = second compound 0.1 µM, first compound 1 µM
[51] = second compound 0.1 µM, first compound 3.16 µM
[52] = second compound 0.1 µM, first compound 10 µM
[53] = second compound 0.316 µM, first compound 0.316 µM
[54] = second compound 0.316 µM, first compound 1 µM
[55] = second compound 0.316 µM, first compound 3.16 µM
[56] = second compound 0.316 µM, first compound 10 µM
[57] = second compound 1 µM, first compound 0.316 µM
[58] = second compound 1 µM, first compound 1 µM
[59] = second compound 1 µM, first compound 3.16 µM
[60] = second compound 1 µM, first compound 10 µM
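Further: spheroids exposed to agents for seven days before reading.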
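Wherever viability, T/C is given: percent of vehicle control luminescence where 100% = DMSO treated spheroids.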

CC(=O)c1c(C)c2cnc(Nc3ccc(N4CCNCC4)cn3)nc2n(C2CCCC2)c1=O + COc1c(OCCCN2CCOCC2)ccc2c3n(c(=NC(=O)c4cnc(N)nc4)nc12)CCN3
IC50 (second compound 0.00316 µM): > 100 nM
IC50 (second compound 0.01 µM): > 100 nM
IC50 (second compound 0.0316 µM): > 100 nM
IC50 (second compound 0.1 µM): > 100 nM
IC50 (second compound 0.316 µM): < 0.316 nM
IC50 (second compound 1 µM): < 0.316 nM
viability, T/C [1]: 106%
viability, T/C [2]: 98.1%
viability, T/C [3]: 99.6%
viability, T/C [4]: 101%
viability, T/C [5]: 117%
viability, T/C [6]: 98.9%
viability, T/C [7]: 98.2%
viability, T/C [8]: 110%
viability, T/C [9]: 99.8%
viability, T/C [10]: 101%
viability, T/C [11]: 103%
viability, T/C [12]: 107%
viability, T/C [13]: 89.7%
viability, T/C [14]: 100%
viability, T/C [15]: 106%
viability, T/C [16]: 99.1%
viability, T/C [17]: 89.4%
viability, T/C [18]: 94.2%
viability, T/C [19]: 68.6%
viability, T/C [20]: 66.8%
viability, T/C [21]: 64.8%
viability, T/C [22]: 61%
viability, T/C [23]: 70.1%
viability, T/C [24]: 68.4%
viability, T/C [25]: 23.5%
viability, T/C [26]: 23.2%
viability, T/C [27]: 22.4%
viability, T/C [28]: 26.3%
viability, T/C [29]: 27.6%
viability, T/C [30]: 19.6%
viability, T/C [31]: 3.72%
viability, T/C [32]: 3.62%
viability, T/C [33]: 3.08%
viability, T/C [34]: 4%
viability, T/C [35]: 4.37%
viability, T/C [36]: 2.62%

CC(C)n1nc(-c2ccc3oc(N)nc3c2)c2c(N)ncnc21 + COc1c(OCCCN2CCOCC2)ccc2c3n(c(=NC(=O)c4cnc(N)nc4)nc12)CCN3
IC50 (second compound 0.00316 µM): 57.4 nM
IC50 (second compound 0.01 µM): 46.4 nM
IC50 (second compound 0.0316 µM): 35.4 nM
IC50 (second compound 0.1 µM): 14.6 nM
IC50 (second compound 0.316 µM): < 0.316 nM
IC50 (second compound 1 µM): < 0.316 nM
viability, T/C [1]: 90.5%
viability, T/C [2]: 79.5%
viability, T/C [3]: 95.2%
viability, T/C [4]: 77.8%
viability, T/C [5]: 72.7%
viability, T/C [6]: 30.3%
viability, T/C [7]: 86.2%
viability, T/C [8]: 89.9%
viability, T/C [9]: 90.4%
viability, T/C [10]: 79.5%
viability, T/C [11]: 62.4%
viability, T/C [12]: 25.9%
viability, T/C [13]: 79.1%
viability, T/C [14]: 86.4%
viability, T/C [15]: 86%
viability, T/C [16]: 68.3%
viability, T/C [17]: 54.5%
viability, T/C [18]: 21.7%
viability, T/C [19]: 63.1%
viability, T/C [20]: 56.8%
viability, T/C [21]: 61.1%
viability, T/C [22]: 58.3%
viability, T/C [23]: 32.8%
viability, T/C [24]: 13.3%
viability, T/C [25]: 18.5%
viability, T/C [26]: 21.5%
viability, T/C [27]: 18.2%
viability, T/C [28]: 15.8%
viability, T/C [29]: 12.2%
viability, T/C [30]: 5.55%
viability, T/C [31]: 3.09%
viability, T/C [32]: 3%
viability, T/C [33]: 2.48%
viability, T/C [34]: 3.58%
viability, T/C [35]: 2.39%
viability, T/C [36]: 0.95%

CC1(C)CCC(CN2CCN(c3ccc(C(=O)NS(=O)(=O)c4ccc(NCC5CCOCC5)c([N+](=O)[O-])c4)c(Oc4cnc5[nH]ccc5c4)c3)CC2)=C(c2ccc(Cl)cc2)C1 + COc1c(OCCCN2CCOCC2)ccc2c3n(c(=NC(=O)c4cnc(N)nc4)nc12)CCN3
IC50 (second compound 0.00316 µM): > 10000 nM
IC50 (second compound 0.01 µM): > 10000 nM
IC50 (second compound 0.0316 µM): > 10000 nM
IC50 (second compound 0.1 µM): > 10000 nM
IC50 (second compound 0.316 µM): < 31.6 nM
IC50 (second compound 1 µM): < 31.6 nM
viability, T/C [5]: 107%
viability, T/C [6]: 97.6%
viability, T/C [37]: 119%
viability, T/C [38]: 108%
viability, T/C [39]: 86.5%
viability, T/C [40]: 98.2%
viability, T/C [11]: 104%
viability, T/C [12]: 106%
viability, T/C [41]: 106%
viability, T/C [42]: 91.2%
viability, T/C [43]: 91%
viability, T/C [44]: 102%
viability, T/C [17]: 97%
viability, T/C [18]: 99.8%
viability, T/C [45]: 114%
viability, T/C [46]: 89.5%
viability, T/C [47]: 92.7%
viability, T/C [48]: 102%
viability, T/C [23]: 65.7%
viability, T/C [24]: 68.8%
viability, T/C [49]: 65.8%
viability, T/C [50]: 63.8%
viability, T/C [51]: 59.3%
viability, T/C [52]: 58.4%
viability, T/C [29]: 24.1%
viability, T/C [30]: 22.1%
viability, T/C [53]: 23.5%
viability, T/C [54]: 19.9%
viability, T/C [55]: 23.7%
viability, T/C [56]: 19.6%
viability, T/C [35]: 4.02%
viability, T/C [36]: 3.65%
viability, T/C [57]: 4.06%
viability, T/C [58]: 3.2%
viability, T/C [59]: 3.26%
viability, T/C [60]: 2.9%

CCCS(=O)(=O)Nc1ccc(F)c(C(=O)c2c[nH]c3ncc(-c4ccc(Cl)cc4)cc23)c1F + COc1c(OCCCN2CCOCC2)ccc2c3n(c(=NC(=O)c4cnc(N)nc4)nc12)CCN3
IC50 (second compound 0.00316 µM): 5390 nM
IC50 (second compound 0.01 µM): 4980 nM
IC50 (second compound 0.0316 µM): 4210 nM
IC50 (second compound 0.1 µM): 1760 nM
IC50 (second compound 0.316 µM): < 31.6 nM
IC50 (second compound 1 µM): < 31.6 nM
viability, T/C [5]: 117%
viability, T/C [6]: 96.9%
viability, T/C [37]: 92.4%
viability, T/C [38]: 100%
viability, T/C [39]: 92.7%
viability, T/C [40]: 0.51%
viability, T/C [11]: 89.8%
viability, T/C [12]: 87.2%
viability, T/C [41]: 100%
viability, T/C [42]: 96.4%
viability, T/C [43]: 82.5%
viability, T/C [44]: 0.3%
viability, T/C [17]: 85.8%
viability, T/C [18]: 85.3%
viability, T/C [45]: 87.8%
viability, T/C [46]: 82.5%
viability, T/C [47]: 66.4%
viability, T/C [48]: 0.81%
viability, T/C [23]: 55.4%
viability, T/C [24]: 62.3%
viability, T/C [49]: 54%
viability, T/C [50]: 60.4%
viability, T/C [51]: 42.1%
viability, T/C [52]: 1.55%
viability, T/C [29]: 22.4%
viability, T/C [30]: 19.5%
viability, T/C [53]: 18.3%
viability, T/C [54]: 21.9%
viability, T/C [55]: 16%
viability, T/C [56]: 2.22%
viability, T/C [35]: 4.16%
viability, T/C [36]: 3.42%
viability, T/C [57]: 3.84%
viability, T/C [58]: 3.92%
viability, T/C [59]: 3.43%
viability, T/C [60]: 0.43%

CNC(=O)c1ccc(N2C(=S)N(c3ccc(C#N)c(C(F)(F)F)c3)C(=O)C2(C)C)cc1F + COc1c(OCCCN2CCOCC2)ccc2c3n(c(=NC(=O)c4cnc(N)nc4)nc12)CCN3
IC50 (second compound 0.00316 µM): > 10000 nM
IC50 (second compound 0.01 µM): > 10000 nM
IC50 (second compound 0.0316 µM): > 10000 nM
IC50 (second compound 0.1 µM): > 10000 nM
IC50 (second compound 0.316 µM): < 31.6 nM
IC50 (second compound 1 µM): < 31.6 nM
viability, T/C [5]: 107%
viability, T/C [6]: 103%
viability, T/C [37]: 113%
viability, T/C [38]: 116%
viability, T/C [39]: 121%
viability, T/C [40]: 97.7%
viability, T/C [11]: 117%
viability, T/C [12]: 108%
viability, T/C [41]: 102%
viability, T/C [42]: 103%
viability, T/C [43]: 107%
viability, T/C [44]: 81.1%
viability, T/C [17]: 93.7%
viability, T/C [18]: 92.2%
viability, T/C [45]: 114%
viability, T/C [46]: 101%
viability, T/C [47]: 98.6%
viability, T/C [48]: 84%
viability, T/C [23]: 66%
viability, T/C [24]: 73.9%
viability, T/C [49]: 72.8%
viability, T/C [50]: 74.8%
viability, T/C [51]: 62.9%
viability, T/C [52]: 67.5%
viability, T/C [29]: 20.7%
viability, T/C [30]: 26.3%
viability, T/C [53]: 28.3%
viability, T/C [54]: 25.5%
viability, T/C [55]: 24.8%
viability, T/C [56]: 25.9%
viability, T/C [35]: 4.11%
viability, T/C [36]: 3.82%
viability, T/C [57]: 3.77%
viability, T/C [58]: 4.37%
viability, T/C [59]: 3.8%
viability, T/C [60]: 3.34%
